{"source": "patent US20210363495A1", "about": "“CULTURE MEDIA FOR PLURIPOTENT STEM CELLS” (Yeda Research and Development Co. Ltd., priority 2019, published 2021)", "key": {"human naïve PSCs [1]": {"system": "human naïve PSCs", "assay": "RT-PCR analysis for naïve pluripotency markers", "type": "cell-based", "details": "ENHSM with and without P38i/JNKi, normalized to ACTIN, primed set as 1", "description": "(§1) FIGS. 2A-I. Optimizations for enhanced human naive pluripotency conditions. A. W3G4 METTL3 TET-OFF cells were maintained in the presence of DOX for up to 4 passages in different conditions and stained for OCT4 to quantify percentage of cells that retained their pluripotency. […] B. Quantification of ΔPE-OCT4-GFP knock in naïve pluripotency reporter, in variety of primed (red) and naïve conditions (blue). Mean fluorescence intensity values (MFI) are indicated. […] C. Quantification of ΔPE-OCT4-GFP knock in naïve pluripotency reporter, in optimized naïve conditions and various concentrations of GSK3 inhibitor that leads to WNT activation (CHIR99021 is used as GSK3 inhibitor and is abbreviated as CHIR). […] D. Phase images showing how supplementation of 0.2% Geltrex (Life Technologies) in the growth media and SRCi additively enhance domed like morphology of human naïve PSCs in ENHSM conditions optimized herein. E. RT-PCR analysis for naïve pluripotency markers in ENHSM conditions with and without P38i/JNKi (BIRB0796). Values were normalized to ACTIN and values in Primed conditions were set as 1. […] F. W3G4 METTL3 TET-OFF cells were maintained in the presence of DOX for up to 4 passages in the optimized ENHSM conditions but without TNKi, in order to see if other molecules can substitute for TNKi after all optimizations were applies (e.g. adding of Geltrex, concentration optimization). […]"}, "[2]": {"system": "WIBR3 hESC line carrying ΔPE-OCT4-GFP reporter", "assay": "ΔPE-OCT4-GFP knock in naïve pluripotency reporter quantification", "type": "cell-based, human", "description": "as §1"}, "human naïve PSCs [3]": {"system": "human naïve PSCs", "assay": "Pluripotency maintenance of naïve cells in ENHSM supplemented with CHIR", "type": "cell-based", "details": "ENHSM plus CHIR; TGFB inhibition, depleted DNA and RNA methylation or no L-Glutamine", "description": "The present inventors next aimed to define the signaling pathway downstream of Tankyrase inhibition facilitating human naïve PSCs stabilization. Bcat-KO ESCs had higher levels of Oct4-GFP in ENHSM condition, and upon removal of XAV939 GFP level was not decreased in KO, but in WT ESCs. A similar trend was shown in RT-PCR analysis. Supplementing naïve cells with WNT stimulator compromised delta-PE-OCT4-GFP levels, compromised their domed shape like morphology and their transcriptional profile. Using a tamoxifen induced Beta-Catenin-ERT transgene, the present inventors noted that delta-PE-OCT4-GFP signal and domed morphology were compromised upon tamoxifen stimulation. […] Similarly, while KO of TCF3 boosts mouse naïve pluripotency and alleviates the need for WNT stimulation, TCF3 KO ESCs still required WNTi and/or SRCi to maintain their naïve identity in humans. […] Collectively, these findings clearly establish WNT as a priming agent for human, but not mouse, naïve pluripotency and establish that KO of beta-catenin can substitute for Tankyrase inhibition."}, "primed human PSCs": {"system": "primed human PSCs", "assay": "Single cell cloning efficiency", "type": "cell-based", "details": "primed cells, ROCK inhibitor used"}, "PKCα": {"molecular_target": "PKCα (Homo sapiens, UniProt P17252)", "details": "cited from earlier work"}, "PKCβ": {"molecular_target": "PKCβ (Homo sapiens, UniProt P05771)", "sequence (P05771 whole entry, species assumed)": "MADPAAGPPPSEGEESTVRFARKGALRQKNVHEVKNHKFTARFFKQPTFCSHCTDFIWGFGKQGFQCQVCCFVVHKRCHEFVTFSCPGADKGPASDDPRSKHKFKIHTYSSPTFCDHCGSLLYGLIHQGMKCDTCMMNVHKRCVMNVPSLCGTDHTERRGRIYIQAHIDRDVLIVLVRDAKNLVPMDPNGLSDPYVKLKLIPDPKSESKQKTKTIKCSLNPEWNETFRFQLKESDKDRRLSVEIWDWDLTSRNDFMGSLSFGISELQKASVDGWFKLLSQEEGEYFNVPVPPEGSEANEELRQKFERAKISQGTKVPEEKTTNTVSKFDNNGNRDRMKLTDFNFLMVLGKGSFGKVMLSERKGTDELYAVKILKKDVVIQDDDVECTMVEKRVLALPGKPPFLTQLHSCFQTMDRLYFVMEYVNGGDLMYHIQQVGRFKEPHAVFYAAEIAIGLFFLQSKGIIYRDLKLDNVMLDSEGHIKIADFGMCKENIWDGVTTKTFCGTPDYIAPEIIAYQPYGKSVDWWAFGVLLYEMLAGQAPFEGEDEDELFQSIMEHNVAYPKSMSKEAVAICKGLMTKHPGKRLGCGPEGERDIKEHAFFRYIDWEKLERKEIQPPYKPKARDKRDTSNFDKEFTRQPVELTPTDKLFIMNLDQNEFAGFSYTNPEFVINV", "details": "cited from earlier work"}, "PKCγ [4]": {"molecular_target": "PKCγ (Homo sapiens, UniProt P05129)", "details": "third value of the list; cited from earlier work"}, "PKCγ [5]": {"system": "PKCγ", "details": "fourth value of the list; read-out: IC50 PKCγ (second mention); cited from earlier work"}, "PKCζ": {"molecular_target": "T1, PKCζ (Homo sapiens, UniProt Q05513)", "T1 sequence (Q05513 1-592)": "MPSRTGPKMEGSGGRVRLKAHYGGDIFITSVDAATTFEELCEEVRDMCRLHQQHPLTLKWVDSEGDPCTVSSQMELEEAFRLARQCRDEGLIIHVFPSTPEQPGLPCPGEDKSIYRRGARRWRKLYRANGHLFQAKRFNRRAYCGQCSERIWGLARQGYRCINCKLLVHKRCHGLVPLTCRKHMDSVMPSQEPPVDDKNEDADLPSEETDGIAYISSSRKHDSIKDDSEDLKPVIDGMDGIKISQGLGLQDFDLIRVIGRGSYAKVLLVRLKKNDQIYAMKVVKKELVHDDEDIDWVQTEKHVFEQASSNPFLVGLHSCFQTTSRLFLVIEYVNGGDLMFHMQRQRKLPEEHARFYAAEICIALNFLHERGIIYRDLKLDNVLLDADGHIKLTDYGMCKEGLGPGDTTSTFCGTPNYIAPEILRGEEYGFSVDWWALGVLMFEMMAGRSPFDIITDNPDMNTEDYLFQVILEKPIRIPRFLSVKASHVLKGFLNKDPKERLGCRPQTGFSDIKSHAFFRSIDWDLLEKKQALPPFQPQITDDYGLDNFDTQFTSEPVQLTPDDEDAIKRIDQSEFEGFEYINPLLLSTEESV", "details": "cited from earlier work"}, "PKCμ": {"molecular_target": "T2, PKCμ (Homo sapiens, UniProt Q15139)", "T2 sequence (Q15139 1-912)": "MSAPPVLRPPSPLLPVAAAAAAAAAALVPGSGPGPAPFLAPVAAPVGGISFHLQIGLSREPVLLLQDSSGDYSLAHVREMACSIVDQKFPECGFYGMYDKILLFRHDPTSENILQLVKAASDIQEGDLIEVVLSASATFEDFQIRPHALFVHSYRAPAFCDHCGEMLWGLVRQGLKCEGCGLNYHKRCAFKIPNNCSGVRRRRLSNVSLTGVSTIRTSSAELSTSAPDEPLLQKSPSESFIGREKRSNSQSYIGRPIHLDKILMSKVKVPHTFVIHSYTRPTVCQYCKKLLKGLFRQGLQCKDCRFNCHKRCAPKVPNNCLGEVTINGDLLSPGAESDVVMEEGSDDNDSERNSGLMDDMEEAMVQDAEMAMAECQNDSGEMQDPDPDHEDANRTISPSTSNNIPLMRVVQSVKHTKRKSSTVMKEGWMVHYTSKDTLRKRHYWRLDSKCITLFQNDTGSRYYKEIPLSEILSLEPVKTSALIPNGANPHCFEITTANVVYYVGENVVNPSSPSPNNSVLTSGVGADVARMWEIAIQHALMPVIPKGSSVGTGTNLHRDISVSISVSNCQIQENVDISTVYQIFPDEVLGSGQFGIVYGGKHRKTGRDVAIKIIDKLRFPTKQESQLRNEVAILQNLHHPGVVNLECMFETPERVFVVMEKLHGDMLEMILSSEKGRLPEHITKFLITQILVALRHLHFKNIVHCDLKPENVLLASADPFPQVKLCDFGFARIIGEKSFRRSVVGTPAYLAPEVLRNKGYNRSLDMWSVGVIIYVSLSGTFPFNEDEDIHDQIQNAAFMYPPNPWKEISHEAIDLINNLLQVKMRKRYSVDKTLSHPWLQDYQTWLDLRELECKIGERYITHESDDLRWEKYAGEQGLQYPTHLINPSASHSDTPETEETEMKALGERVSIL", "details": "cited from earlier work"}, "[6]": {"system": "Tet-OFF-METTL3 hESCs (WIBR3, clone W3G4)", "assay": "Pluripotency (OCT4+) maintenance of Tet-OFF-METTL3 hESCs in the presence of DOX", "type": "cell-based, human", "details": "individual small molecule supplemented to NHSM, Geltrex coated plates, no MEFs", "description": "FIGS. 1A-I Defining enhanced human naive conditions compatible with expanding METTL3 depleted PSCs. A. Strategy for generating human ESCs with TET-OFF regulated expression of METTL3 m^6A methyltransferase enzyme. B. Western blot analysis for correctly engineered human ESCs with TET-OFF METTL3 regulation, before and after DOX treatment. C. Representative images for human METTL3 TET-OFF engineered cells in different conditions with or without DOX addition. […] D. Scheme depicting strategy for conducting a screen for identifying a small molecule or cytokine additive to previously described human naïve NHSM conditions that allow maintain pluripotency in TET-OFF METTL3 human stem cells after adding DOX. E. W3G4 cells were maintained in the presence of DOX for up to 4 passages in different conditions and stained for OCT4 to quantify percentage of cells that retained their pluripotency. […] F. OCT4+ pluripotency maintenance in NHSM conditions supplemented with various TNK inhibitors and DOX to repress METTL3 expression. G. Quantification of ΔPE-OCT4-GFP knock in naïve pluripotency reporter, in variety of primed (red) and naïve conditions (blue). Mean fluorescence intensity values (MFI) are indicated. H. Quantification of ΔPE-OCT4-GFP knock in naïve pluripotency reporter in variety of conditions with various concentrations of ACTIVIN A recombinant cytokine. […] I. Representative phase contrast images in human ESCs expanded in NHSM+TNKi conditions showing their maintenance of pluripotent domed-like morphology even in the presence of FGFRi.\nIn order to identify culture conditions which capture human naïve PSC, the present inventors looked for agents which are capable of maintaining stem cells in a pluripotent state in the absence of defined epigenetic repressors. Human knock-in WIBR3 hESC lines with conditional inducible ablation expression of METTL3 were engineered (FIG. 1A). This was carried out by introducing an exogenous METTL3 transgene under the regulation of Tet-OFF promoter (Liao et al., 2015), followed by CRISPR/Cas9 mediated ablation of both endogenous human METTL3 alleles. Two resultant clones were validated for METTL3 expression only from the exogenous allele, which can be shut off by addition of DOX to the media (called Tet-OFF-METTL3 lines) (FIG. 1B).\nThe latter further support rewiring toward naïve pluripotency in NHSM conditions. […] Candidate molecules were tested for the ability to enrich NHSM conditions that allow Tet-OFF-METTL3 to be maintained on Geltrex coated plates in the presence of DOX.\nNHSM conditions were supplemented with individual small molecules (FIG. 1D). […] IWR1 is a WNT inhibitor (WNTi) small molecule that stabilizes AXIN protein in the cytoplasm by inhibiting Tankyrase enzyme (abbreviated herein as TNK inhibitor—TNKi)."}}}
{"smiles": "Cc1ccc(-n2nc(C(C)(C)C)cc2NC(=O)Nc2ccc(OCCN3CCOCC3)c3ccccc23)cc1", "note": "[BIRB0796]", "values": [{"measurement": "naïve pluripotency marker expression", "setting": "human naïve PSCs [1]", "value": "boosts expression of naïve pluripotency markers"}]}
{"smiles": "Cc1c[nH]c(-c2cnc(NCCNc3ccc(C#N)cn3)nc2-c2ccc(Cl)cc2Cl)n1", "note": "[CHIR99021]", "values": [{"measurement": "ΔPE-OCT4-GFP intensity", "setting": "[2]; optimized naïve conditions, various concentrations of GSK3 inhibitor", "value": "negatively influences human naive pluripotency"}, {"measurement": "ability to maintain pluripotency", "setting": "human naïve PSCs [3]", "value": "compromised their ability to maintain pluripotency"}]}
{"smiles": "C[C@@H](N)[C@H]1CC[C@H](C(=O)Nc2ccncc2)CC1", "note": "[Condition Y27632]", "values": [{"measurement": "single cell cloning", "setting": "primed human PSCs", "value": "10-20%"}]}
{"smiles": "COc1ccc2c(c1)c(C1=C(c3c[nH]c4ccccc34)C(=O)NC1=O)cn2CCCN(C)C", "note": "[Go6983]", "values": [{"measurement": "IC50", "setting": "PKCα", "value": 7, "unit": "nM"}, {"measurement": "IC50", "setting": "PKCβ", "value": 7, "unit": "nM"}, {"measurement": "IC50", "setting": "PKCγ [4]", "value": 6, "unit": "nM"}, {"measurement": "IC50", "setting": "PKCγ [5]", "value": 10, "unit": "nM"}, {"measurement": "IC50", "setting": "PKCζ", "value": 60, "unit": "nM"}, {"measurement": "IC50", "setting": "PKCμ", "value": 20000, "unit": "nM"}]}
{"smiles": "O=C(Nc1cccc2cccnc12)c1ccc(N2C(=O)[C@@H]3[C@H](C2=O)[C@@H]2C=C[C@H]3C2)cc1", "note": "[IWR1]", "values": [{"measurement": "expansion of Tet-OFF-METTL3 on DOX", "setting": "[6]", "value": "enabled the expansion of Tet-OFF-METTL3 on DOX with great homogeneity"}, {"measurement": "ΔPE-OCT4-GFP expression", "setting": "[2]; TNKi supplemented to NHSM conditions", "value": "boosts expression of GFP"}]}
